Earlier results on one compound are cited in patent US20260258363A1, “THERAPY” (PLASTICELL LTD, priority 2023, published 2026).

In this data set the test system is bone marrow derived CD34+ cells. The note with it: pre-treatment of cells in vitro.

For `NCCCNCCS` [WR1065], the “enhancement of formation of CFU-GEMM and BFU-E colonies” value was no more than 38 fold.
